Experimental data published in patent EP0327365B1, “Improvements in or relating to modified haptens useful as imaging and therapeutic agents” (HYBRITECH INCORPORATED, priority 1988, dated 1989).

Tests used:
[1] = test system: monoclonal antibody CHA255; test: Determination of hapten-antibody dissociation rates; type: binding, BALB/c mice; conditions: 22°C; indium complex of hapten from CHA255 after 100 fold excess of indium-115 loaded hapten
Protocol: Hapten-antibody dissociation rates were determined using monoclonal antibody CHA255, prepared as described in Example 2A, by measuring the quantity of ¹¹¹In³⁺ chelate released from the antibody hapten complex as a function of time after addition of a 100 fold excess (over antibody binding sites) of indium-115 loaded hapten. Thus, for each hapten, a 700 »l solution was prepared containing: antibody at a concentration of 160 nM; indium loaded hapten, trace labeled with ¹¹¹In (total concentration = 160 nM); normal human serum albumin at a total concentration of 1.5 mg/mL; and isotonic phosphate buffered saline, (10 mM PO₄²⁻, 150 mM NaCl, pH 7.2). Indium-115 loaded hapten was added to a final Concentration of […]. Reactions were stirred by placing the sample containers ir a rack mounted on a vortexer head.
At various times after addition of the excess hapten, […] portions of the reaction solutions were transferred to Centrifree tubes (Amicon Corperation, Danvers, Massachusetts) and centrifuged at 1500xg for eight to ten minutes. The reaction time was taken to be the time between addition of the excess hapten and the time the centrifuge reached the desired velocity. Six timepoints, each in duplicate, were obtained over a range of about two reaction half-lives for each rate constant determination. A 200 »l portion from each centrifuged and uncentrifuged solution was then counted for ¹¹¹In. The relative concentration of free hapten was taken to be the ratio of counts in the centrifuged solution to the uncentrifuged solution at each timepoint. Times were recorded to the nearest tenth of a minute.
Room temperature rate constants were measured without the aid of a constant temperature bath. The ambient temperature remained at 22°±1 C.
Rate constants and standard deviations were obtained from a plot of the logarithm of relative complex concentration vs. time. Data were analyzed using the linear regression module of the RS/1 Program (BBN Software Products Corporation, Cambridge, Massachusetts).
Control samples were included in each experiment to determine: A) that the initial condition of 100% of labeled hapten bound to antibody was met, and B) that in the absence of antibody, 100% of counts were able to penetrate the Centrifree membrane. […]

T-380 tumors = test: Hapten biodistribution, premix protocol with bifunctional antibody ECH037.2; type: in vivo, nude mice; set-up: TOTAL RECOV: unit not given here; conditions: for % DOSE PER GRAM, KIDNEY / % DOSE PER GRAM, LIVER / % DOSE PER GRAM, TUMOR / FECES / TOTAL RECOV / URINE / % DOSE PER GRAM, BLOOD / TUMOR/BLOOD: premix with 20 µg ECH037.2; for % DOSE PER GRAM, BLOOD: 111In-labeled hapten i.v.; for TUMOR/BLOOD: ratio; for %Dose per Gram, Blood / %Dose per Gram, Tumor: premix with 20 µg ECH037.2 (Table VIII); for Percent Injected Dose in Feces: premix protocol (Table VI)
Protocol: Two protocols were used for examining the biodistribution of the derivatized haptens in the presence of the bifunctional antibody ECH037.2. In a premix protocol, ECH037.2 and the derivatized hapten were combined prior to injection in the animals. In the prelocalization protocol, ECH037.2 was injected into the animals, and the antibody was allowed to prelocalize for 24 hours prior to injection of the radiolabeled hapten.
Biodistribution studies were performed in nude mice carrying subcutaneous implants of the human colon carcinoma cell line T-380 which expresses the carcinoembryonic antigen (CEA) recognized by ECH037.2. Briefly, Balb/C Nu/Nu mice were injected subcutaneously with a minced preparation of T-380 tumor implants and maintained for approximately two weeks, or until the tumor implant had grown to a size of approximately 0.5 grams as described by Hagan, P.L., et al. J. Nuc. Med., 26 1418-1423 (1985). Mice were kept in a sterile environment to prevent complications due to bacterial or viral infections. Biodistributions were performed as described by Halpern, S., et al., Cancer Res. 43, 5347-5355 (1983). Briefly, the radiolabeled haptens were injected intravenously in […], and the pharmacokinetics were evaluated at several time points post-injection. At these times, mice were sacrificed and weighed. Organs were removed, their weight recorded, and each organ was then washed in sterile PBS, pH 7.0, and fixed in formalin solution. Samples of blood, urine and feces also were collected and their weight similarly recorded. The organs, or a portion thereof, were transferred to clean tubes and their radioactive content was determined in a well-type gamma-counter.
Relative radioactive content of each organ was expressed as a percentage of injected dose per organ.
To indium-label the haptens of the invention 10 »l of 0.1 mM ligand was combined with X »l of ¹¹¹InCl₃ (in 50 mM HCl) and (x+10) »l of 0.26 M ammonium citrate, pH 6.0. X is calculated by the following equation: X = (200 »Ci)/(A »Ci/»l) [formula] where A is the specific activity of the ¹¹¹In.
The labeling was done in an acid-washed microfuge tube. After combining all of the components above, the solution was vortexed and allowed to stand at room temperature for 15 minutes.
Incorporation of the ¹¹¹In into the chelating agent was determined by TLC on silica in a methanol/aqueous ammonium acetate solvent system as described by Meares, et al. (Anal. Biochem., 142, 68-75 (1984)). Greater than 95% incorporation of the radioactivity into the chelate was required for the sample to be submitted for a biodistribution assay.
Prior to injection the ¹¹¹In-labeled hapten was diluted into freshly prepared isotonic sodium bicarbonate (1.39% w/v) containing 1 mg/ml normal human serum albumin (Buminate, 25% solution, Travenol Laboratories, Glendale, California) to which the bifunctional antibody had been added. The final composition of the solution was 0.2 mg/ml ECH037.2, 0.5 »M chelate, 0.1 »Ci/»l ¹¹¹In, all in a volume of 2.0 ml. For the biodistribution studies, 100 »l of the solution was injected into the tail vein of each animal.

Row | % DOSE PER GRAM, KIDNEY (T-380 tumors; 24 hours) [% DOSE PER GRAM] | % DOSE PER GRAM, LIVER (T-380 tumors; 24 hours) [% DOSE PER GRAM] | % DOSE PER GRAM, TUMOR (T-380 tumors; 24 hours) [% DOSE PER GRAM] | FECES (T-380 tumors; 24 hours) | TOTAL RECOV (T-380 tumors; 24 hours) | URINE (T-380 tumors; 24 hours) | % DOSE PER GRAM, BLOOD (T-380 tumors; 24 hours) [% DOSE PER GRAM] | TUMOR/BLOOD (T-380 tumors; 24 hours) | Percent Injected Dose in Feces (T-380 tumors; 24 hrs.) [Percent Injected Dose] | % DOSE PER GRAM, KIDNEY (T-380 tumors; 48 hours) [% DOSE PER GRAM] | % DOSE PER GRAM, LIVER (T-380 tumors; 48 hours) [% DOSE PER GRAM] | % DOSE PER GRAM, TUMOR (T-380 tumors; 48 hours) [% DOSE PER GRAM] | FECES (T-380 tumors; 48 hours) | TOTAL RECOV (T-380 tumors; 48 hours) | URINE (T-380 tumors; 48 hours) | % DOSE PER GRAM, BLOOD (T-380 tumors; 48 hours) [% DOSE PER GRAM] | TUMOR/BLOOD (T-380 tumors; 48 hours) | Percent Injected Dose in Feces (T-380 tumors; 48 hrs.) [Percent Injected Dose] | Structure (SMILES) | t1/2, Dissociation Half-Lives [1] [h] | also measured
1 | 2.4 | 4.0 | 8.5 | 4.1% of total injected dose | 48.2 | 23.7% of total injected dose | 8.0 | 1.06 | 4.1 | 1.1 | 1.6 | 6.5 | 9.8% of total injected dose | 69.5 | 48.8% of total injected dose | 3.8 | 1.71 | 9.9 | NC(=S)Nc1ccc(CC(CN(CC(=O)O)CC(=O)O)N(CC(=O)O)CC(=O)O)cc1 (centres unmarked) [TUBE] | 1.4 | %Dose per Gram, Blood (T-380 tumors; 24 hrs. post-injection): 8.0 %Dose per Gram; %Dose per Gram, Tumor (T-380 tumors; 24 hrs. post-injection): 8.5 %Dose per Gram; %Dose per Gram, Blood (T-380 tumors; 48 hrs. post-injection): 3.8 %Dose per Gram; %Dose per Gram, Tumor (T-380 tumors; 48 hrs. post-injection): 6.5 %Dose per Gram; %Dose per Gram, Blood (T-380 tumors; 72 hrs. post-injection): 1.7 %Dose per Gram; %Dose per Gram, Tumor (T-380 tumors; 72 hrs. post-injection): 5.3 %Dose per Gram
2 | 2.5 | 3.3 | 11.5 | 6.9% of total injected dose | 50.8 | 20.0% of total injected dose | 11.8 | 0.97 | 6.9 | 1.5 | 2.0 | 12.1 | 21.1% of total injected dose | 68.3 | 30.4% of total injected dose | 7.9 | 1.53 | 21.1 | O=C(O)CCCNC(=S)Nc1ccc(CC(CN(CC(=O)O)CC(=O)O)N(CC(=O)O)CC(=O)O)cc1 (centres unmarked) [BATUBE] | 1.24 | –

The remaining lines, values behind:

Row | Structure (SMILES) | % DOSE PER GRAM, KIDNEY (T-380 tumors; 24 hours) [% DOSE PER GRAM] | % DOSE PER GRAM, LIVER (T-380 tumors; 24 hours) [% DOSE PER GRAM] | % DOSE PER GRAM, TUMOR (T-380 tumors; 24 hours) [% DOSE PER GRAM] | FECES (T-380 tumors; 24 hours) | TOTAL RECOV (T-380 tumors; 24 hours) | URINE (T-380 tumors; 24 hours) | % DOSE PER GRAM, BLOOD (T-380 tumors; 24 hours) [% DOSE PER GRAM] | TUMOR/BLOOD (T-380 tumors; 24 hours) | Percent Injected Dose in Feces (T-380 tumors; 24 hrs.) [Percent Injected Dose] | % DOSE PER GRAM, KIDNEY (T-380 tumors; 48 hours) [% DOSE PER GRAM] | % DOSE PER GRAM, LIVER (T-380 tumors; 48 hours) [% DOSE PER GRAM] | % DOSE PER GRAM, TUMOR (T-380 tumors; 48 hours) [% DOSE PER GRAM] | FECES (T-380 tumors; 48 hours) | TOTAL RECOV (T-380 tumors; 48 hours) | URINE (T-380 tumors; 48 hours) | % DOSE PER GRAM, BLOOD (T-380 tumors; 48 hours) [% DOSE PER GRAM] | TUMOR/BLOOD (T-380 tumors; 48 hours) | Percent Injected Dose in Feces (T-380 tumors; 48 hrs.) [Percent Injected Dose] | t1/2, Dissociation Half-Lives [1] [h] | also measured
3 | O=C(O)CN(CC(=O)O)CC(Cc1ccc(NC(=S)Nc2ccccc2)cc1)N(CC(=O)O)CC(=O)O (centres unmarked) [PHTUBE] | 2.9 | 3.6 | 12.4 | 13.9% of total injected dose | 57.2 | 20.3% of total injected dose | 8.9 | 1.39 | 13.9 | 1.7 | 2.3 | 10.6 | 21.7% of total injected dose | 62.4 | 24.5% of total injected dose | 5.4 | 1.96 | 27.1 | 1.25 | –
4 | CCCCNC(=S)Nc1ccc(CC(CN(CC(=O)O)CC(=O)O)N(CC(=O)O)CC(=O)O)cc1 (centres unmarked) [BUTUBE] | 1.7 | 3.4 | 5.3 | 16.8% of total injected dose | 63.8 | 22.0% of total injected dose | 9.0 | 0.59 | 16.8 | 1.2 | 3.8 | 5.7 | 26.5% of total injected dose | 69.3 | 27.0% of total injected dose | 5.8 | 0.98 | 26.5 | 1.51 | amount of hapten in the tumor (T-380 tumors; 24 hrs., premix protocol): 5.3 percent injected dose/gram; injected material excreted in the feces (T-380 tumors; 48 hrs. post injection, premix protocol): 26.5% of the injected material; amount of hapten in the tumor (T-380 tumors; 48 hrs., premix protocol): 5.7 percent injected dose/gram
5 | O=C(O)CCCC(=O)NCCNC(=S)Nc1ccc(CC(CN(CC(=O)O)CC(=O)O)N(CC(=O)O)CC(=O)O)cc1 (centres unmarked) [GNUBE] | 2.7 | 3.4 | 9.0 | 10.6% of total injected dose | 52.0 | 14.2% of total injected dose | 13.0 | 0.70 | 10.6 | 1.5 | 2.4 | 12.0 | 17.8% of total injected dose | 63.1 | 26.9% of total injected dose | 8.0 | 1.49 | 17.8 | 1.65 | –
